Results reported in publication PMC12118597 (Science Advances, 2025).
Where two headings read alike, the source gives them in different places.

Legend:
[1] = target: T1, SARS-CoV-2 NSP3 macrodomain (Mac1) (Severe acute respiratory syndrome coronavirus 2, UniProt P0DTD1); test: biochemical; type: binding
[2] = target: T1, SARS-CoV-2 NSP3 macrodomain (Mac1); type: binding; conditions: for 1-BDC: PanDDA background density correction factor; for PanDDA run, overall: Hit / PanDDA run, overall: Modeled / PanDDA run, DMSO background map: 1-BDC / PanDDA run, DMSO background map: Hit: crystal soak 10 mM; for PanDDA run, overall: Hit / PanDDA run, overall: Modeled: P43 crystal form; for Total number of conformations: ligand conformations modeled in the crystal structure; for 2*(1-BDC) (%): occupancy estimate from PanDDA; for Refined ligand occupancy (%): refined crystallographic occupancy
[3] = HTRF binding curve, SARS-CoV-2 Mac1
[4] = SARS CoV-2 macrodomain HTRF assay, dose-response
[5] = TRUE = crystal structure with ligand obtained
[6] = site of ligand in X-ray crystal structure
[7] = SARS CoV-2 macrodomain HTRF assay, single dose concentration 200 μM, read-out: Average % competition
[8] = compound at 200 μM, mean of three to four technical replicates, read-out: % competition at 200 μM (preliminary HTRF screen)
[9] = ligand-bound crystal structure obtained (TRUE)
[10] = site occupied in X-ray crystal structure

## O=C(O)C(F)(F)F.OCC1(Nc2ncnc3[nH]ccc23)CCCC1 [AVI-3692]
[1]; [3]
  Hill slope: 1.3
[1]; [4]
  Hill slope: 1.3
[2]
  Occupancy difference (refined_occupancy - 2*(1-BDC)): -24
  1-BDC: 0.22
  PanDDA run, overall: Hit: TRUE
  PanDDA run, overall: Modeled: TRUE
  PanDDA run, DMSO background map: 1-BDC: 0.22
  PanDDA run, DMSO background map: Hit: TRUE
  Total number of conformations: 1
  2*(1-BDC) (%): 44%
  Refined ligand occupancy (%): 20%
[2]; [5]
  X-ray crystal structure: TRUE
[2]; [6]
  Binding site: Adenosine

## CCC(CC)(CO)Nc1ncnc2[nH]ccc12 [AVI-3695]
[1]; [3]
  Hill slope: 1.3
[1]; [4]
  Hill slope: 1.3
[2]
  Occupancy difference (refined_occupancy - 2*(1-BDC)): 6
  1-BDC: 0.12
  PanDDA run, overall: Hit: TRUE
  PanDDA run, overall: Modeled: TRUE
  PanDDA run, DMSO background map: 1-BDC: 0.12
  PanDDA run, DMSO background map: Hit: TRUE
  Total number of conformations: 2
  2*(1-BDC) (%): 24%
  Refined ligand occupancy (%): 30%
[2]; [5]
  X-ray crystal structure: TRUE
[2]; [6]
  Binding site: Adenosine

## CCC(C)(CO)Nc1ncnc2[nH]ccc12 (stereo not shown) [AVI-3697]
[1]; [3]
  Hill slope: 1.2
[1]; [4]
  Hill slope: 1.2
[2]
  Occupancy difference (refined_occupancy - 2*(1-BDC)): 18
  1-BDC: 0.16
  PanDDA run, overall: Hit: TRUE
  PanDDA run, overall: Modeled: TRUE
  PanDDA run, DMSO background map: 1-BDC: 0.16
  PanDDA run, DMSO background map: Hit: TRUE
  Total number of conformations: 1
  2*(1-BDC) (%): 32%
  Refined ligand occupancy (%): 50%
[2]; [5]
  X-ray crystal structure: TRUE
[2]; [6]
  Binding site: Adenosine

## CC1(C)C[C@@H](CO)N(c2ncnc3[nH]ccc23)C1.O=C(O)C(F)(F)F [AVI-3704]
[1]; [3]
  Hill slope: 1.1
[1]; [4]
  Hill slope: 1.1
[1]; [7]
  inhibition at 200 µM: 90%
[1]; [8]
  inhibition at 200 µM: 90%
[2]
  Occupancy difference (refined_occupancy - 2*(1-BDC)): 0
  1-BDC: 0.33
  PanDDA run, overall: Hit: TRUE
  PanDDA run, DMSO background map: 1-BDC: 0.33
  PanDDA run, DMSO background map: Hit: TRUE
  Total number of conformations: 1
  2*(1-BDC) (%): 66%
  Refined ligand occupancy (%): 66%
[2]; [9]
  X-ray crystal structure: TRUE
[2]; [10]
  Binding site: Adenosine

## OCC1CC2(CCCC2)CN1c1ncnc2[nH]ccc12 (stereo not shown) [AVI-3708]
[1]; [3]
  Hill slope: 1.1
[1]; [4]
  Hill slope: 1.1
[1]; [7]
  inhibition at 200 µM: 90%
[1]; [8]
  inhibition at 200 µM: 90%
[2]
  Occupancy difference (refined_occupancy - 2*(1-BDC)): 0
  1-BDC: 0.32
  PanDDA run, overall: Hit: TRUE
  PanDDA run, DMSO background map: 1-BDC: 0.32
  PanDDA run, DMSO background map: Hit: TRUE
  Total number of conformations: 1
  2*(1-BDC) (%): 64%
  Refined ligand occupancy (%): 64%
[2]; [9]
  X-ray crystal structure: TRUE
[2]; [10]
  Binding site: Adenosine

## OCC1C2CCC(C2)N1c1ncnc2[nH]ccc12 (stereo not shown) [AVI-3713]
[1]; [3]
  Hill slope: 1.1
[1]; [4]
  Hill slope: 1.1
[2]
  Occupancy difference (refined_occupancy - 2*(1-BDC)): 0
  1-BDC: 0.29
  PanDDA run, overall: Hit: TRUE
  PanDDA run, DMSO background map: 1-BDC: 0.29
  PanDDA run, DMSO background map: Hit: TRUE
  Total number of conformations: 1
  2*(1-BDC) (%): 58%
  Refined ligand occupancy (%): 58%
[2]; [9]
  X-ray crystal structure: TRUE
[2]; [10]
  Binding site: Adenosine

## OC[C@@H]1C[C@@H]2CCC[C@@H]2N1c1ncnc2[nH]ccc12 [AVI-3720]
[1]; [3]
  Hill slope: 1.2
[1]; [4]
  Hill slope: 1.2
[2]
  Occupancy difference (refined_occupancy - 2*(1-BDC)): 0
  Phe132 loop open state: TRUE
  1-BDC: 0.29
  PanDDA run, overall: Hit: TRUE
  PanDDA run, DMSO background map: 1-BDC: 0.29
  PanDDA run, DMSO background map: Hit: TRUE
  Total number of conformations: 1
  2*(1-BDC) (%): 58%
  Refined ligand occupancy (%): 58%
[2]; [9]
  X-ray crystal structure: TRUE
[2]; [10]
  Binding site: Adenosine

## O=C(O)C(F)(F)F.OC1([C@H]2CCCN2c2ncnc3[nH]ccc23)Cc2ccccc2C1 [AVI-3731]
[1]; [3]
  Hill slope: 1.1
[1]; [4]
  Hill slope: 1.1
[1]; [7]
  inhibition at 200 µM: 100%
[1]; [8]
  inhibition at 200 µM: 100%
[2]
  Occupancy difference (refined_occupancy - 2*(1-BDC)): 0
  1-BDC: 0.2
  PanDDA run, overall: Hit: TRUE
  PanDDA run, DMSO background map: 1-BDC: 0.2
  PanDDA run, DMSO background map: Hit: TRUE
  Total number of conformations: 1
  2*(1-BDC) (%): 40%
  Refined ligand occupancy (%): 40%
[2]; [9]
  X-ray crystal structure: TRUE
[2]; [10]
  Binding site: Adenosine

## OCCC(CO)Nc1ncnc2[nH]ccc12 (stereo not shown) [AVI-3734]
[1]; [3]
  Hill slope: 1.2
[1]; [4]
  Hill slope: 1.2
[2]
  Occupancy difference (refined_occupancy - 2*(1-BDC)): 0
  1-BDC: 0.25
  PanDDA run, overall: Hit: TRUE
  PanDDA run, DMSO background map: 1-BDC: 0.25
  PanDDA run, DMSO background map: Hit: TRUE
  Total number of conformations: 1
  2*(1-BDC) (%): 50%
  Refined ligand occupancy (%): 50%
[2]; [5]
  X-ray crystal structure: TRUE
[2]; [6]
  Binding site: Adenosine
